From patent US20060172361A1, “Assay for detection of translocase enzyme activity in drug screening” (AstraZeneca AB, priority 2000, published 2006)

Legend:
transferase enzyme = experiment: Scintillation proximity assay of transferase alone, with pre-formed Lipid I and Tunicamycin block, using E. coli AMA1004 ΔponB membranes (Example 4); type: biochemical, Escherichia coli; conditions: after subtracting 0% reaction readings
Method: Microbiol., (1985), 131, 2839-2845. The plate was incubated for 20 min at 37° C.
(ii) Tunicamycin was then added to a final concentration of 10 μg/ml, followed by a test compound (e.g. Vancomycin or Nisin) of varying concentration in dimethyl sulphoxide. Nisin and Vancomycin are known antagonists of the transferase enzyme.
(iii) Then to the reaction well, in a 5 μl volume, the substrate for the transferase was added: 2.5 μM tritiated UDP-N-acetyl glucosamine (0.5 μCi per well). The microtitre plate was incubated for 5 min at 37° C.
(iv) The reaction was terminated by diluting out the radiolabel i.e. by addition of 25 μl of 200 μM unlabelled UDP-GlcNAc.

[1] = tested on: translocase and transferase enzymes; experiment: Scintillation proximity assay of Lipid II synthesis (translocase plus transferase) with lysozyme-prepared E. coli AMA1004 membranes (Example 3); conditions: 100 μM test compound; after subtracting 0% reaction readings
Method: (i) The wells of a microtitre plate were individually filled with a total volume of 25 μl of a reaction mixture comprising an aqueous buffer solution of 50 mM HEPES-ammonia (N-[2-Hydroxyethyl]piperazine-N′-[2-ethanesulfonic acid]) (pH 7.5), and 10 mM magnesium chloride 15 μM UDP-MurNAc-L-alanine-γ-D-glutamic acid-m-diaminopimelic acid-D-alanine-D-alanine, 2.5 μM tritiated UDP-N-acetyl glucosamine (0.2 μCi per well), 6 μg of Escherichia coli AMA1004 cell membranes prepared as described below and a solution of test compound (e.g. Tunicamycin, Vancomycin) of varying concentration in 4% dimethylsulphoxide.
Four wells of the microtitre plate were used as controls: two wells contained no UDP-N-acetylmuramylpentapeptide (0% reaction controls) and a further two wells contained no test compound (100% reaction controls).
If the purpose of the screen is to study the effect of an inhibitor of the transferase or translocase the test compound is added along with the substrates at step (i).
The E. coli membranes were prepared as follows.
Four to five colonies of the bacteria from an LB (Luria Bertani medium) agar plate were inoculated into 5 ml LB-broth and grown during the day (for 6-8 hours) at 37° C. […]
The plate was left for 3 hours/overnight at room temperature before being counted in the “Microbeta Trilux” counter.

| Compound | % Enzyme Activity (transferase enzyme; 100 μM test compound) | % Inhibition [1] | % Enzyme Activity (transferase enzyme; 10 μg/ml test compound) |
| --- | --- | --- | --- |
| CN[C@H](CC(C)C)C(=O)N[C@H]1C(=O)N[C@@H](CC(N)=O)C(=O)N[C@H]2C(=O)N[C@H]3C(=O)N[C@H](C(=O)N[C@H](C(=O)O)c4cc(O)cc(O)c4-c4cc3ccc4O)[C@H](O)c3ccc(c(Cl)c3)Oc3cc2cc(c3O[C@@H]2O[C@H](CO)[C@@H](O)[C@H](O)[C@H]2O[C@H]2C[C@](C)(N)[C@H](O)[C@H](C)O2)Oc2ccc(cc2Cl)[C@H]1O [Vancomycin] | ˜50% | 82% |  |
| Nisin |  |  | ˜30% |
